This is an account of results in patent US10005817B2, “Peptide pharmaceuticals” (EUMEDERIS PHARMACEUTICALS, INC., priority 2012, dated 2018).

In data set [1] the target is T1, PTH receptor (PTHR1) (Homo sapiens, UniProt Q03431).
T1 construct: Cerep SA
T1 sequence (Q03431 27-593): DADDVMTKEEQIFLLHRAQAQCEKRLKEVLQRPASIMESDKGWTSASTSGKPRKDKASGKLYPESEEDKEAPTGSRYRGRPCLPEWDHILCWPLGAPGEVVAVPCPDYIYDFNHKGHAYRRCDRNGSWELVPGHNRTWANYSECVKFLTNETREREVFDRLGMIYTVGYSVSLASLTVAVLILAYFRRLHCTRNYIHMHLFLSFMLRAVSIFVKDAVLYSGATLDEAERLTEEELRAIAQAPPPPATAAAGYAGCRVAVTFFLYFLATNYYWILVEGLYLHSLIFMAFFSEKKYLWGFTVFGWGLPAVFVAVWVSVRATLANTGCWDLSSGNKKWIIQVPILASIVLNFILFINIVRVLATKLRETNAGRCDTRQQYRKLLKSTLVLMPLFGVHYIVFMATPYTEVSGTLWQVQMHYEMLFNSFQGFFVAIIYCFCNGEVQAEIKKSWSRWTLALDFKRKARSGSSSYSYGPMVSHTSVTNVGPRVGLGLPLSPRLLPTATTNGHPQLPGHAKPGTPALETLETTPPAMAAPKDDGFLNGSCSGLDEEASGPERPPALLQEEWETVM
Nature of the data set: PTH1 cellular assay, antagonist mode with added PTHrP. Type of data set: cell-based. The following applies: read-out: maximal effects in antagonist mode. The procedure: Compounds were weighed precisely in an amount of approximately 1 mg and assayed in standard cellular assays (cerep SA). The readout is the amount of cAMP generated in the cells treated with the test compounds, in either agonist or antagonist mode. The PTH1 cellular assay used is described in Orloff, J. J., et al. (1992) Endocrinol 131: 1603-1611.
Modifications elsewhere in the molecule can be used to further modify the potency and character of the interaction of the drug candidates.

In data set [2] the test system is λ-carrageenan-induced inflammatory pain. Nature of the data set: λ-carrageenan-induced inflammatory pain model, paw pressure threshold (Randall-Selitto). Type of data set: in vivo, rat. The following applies: rats, i.pl., 24 h after carrageenan; beyond 30 min. The procedure: Adult male Sprague-Dawley rats were briefly anesthetized with isoflurane, and unilateral hind paw inflammatory pain was induced by injecting […] of λ-carrageenan. A λ-carrageenan injection into the left hind paw produces redness and edema. These alterations were observed within 6 h after induction of inflammation and peaked by 24 h. Further, the changes were confined to the carrageenan treated paw.
Changes in Paw Pressure Thresholds (PPT), a measurement of nociception and antinociception, was evaluated using a digital Randall-Selitto method. Briefly, animals are gently restrained and incremental pressure (maximum 350 g) was applied onto the dorsal surface of the hindpaw. The pressure required to elicit paw withdrawal, PPT, was determined. Paw-thickness, the indicator of inflammation, was measured using digital calipers. 24 h after induction of inflammation, rats received either saline, positive controls (DAMGO (8-32 μg) or fentanyl (0.4-0.8 μg)) or test peptides in 100 μl volume i.pl. The antinociception was measured at different time points (5 to 120 min or 5 hr to 24 hr) after drug administration. Baseline measures were taken before administering drug to confirm the development of inflammation and nociception.

The target in data set [3] is T2, mu opioid receptor (Homo sapiens, UniProt P35372).
T2 construct: Cerep
Nature of the data set: mu opioid receptor cellular assay (MOP), agonist mode, cAMP readout (Cerep). Type of data set: cell-based.

Data set [4] has as its target T3, delta2 opioid receptor (Mus musculus, UniProt P32300).
T3 construct: Cerep
Nature of the data set: delta2 opioid receptor cellular assay (DOP), antagonist mode vs DPDPE, cAMP readout. Type of data set: cell-based. The procedure:
Compounds were weighed precisely in an amount of approximately 2 mg and assayed in standard cellular assays by the contract research organization Cerep, Inc. (Pullman, Wash.) as executed at their subsidiary, Cerep SA (Le Bois l'Eveque, France). The readout is the amount of cAMP generated in the cells treated with the test compounds, in either agonist or antagonist mode. The assays used were the mu opioid receptor cellular assay (MOP in agonist and antagonist mode), the delta2 opioid receptor cellular assay (DOP in agonist and antagonist mode) and the kappa opioid receptor cellular assay (KOP in agonist and antagonist mode). The assays used are described in Wang, J. B., et al. (1994) FEBS Lett 338: 217-222, Law, P. Y. and Loh, H. H. (1993) Mol Pharmacol 43: 684-693, and Avidor-Reiss, T., et al. (1995) FEBS Lett 361: 70-74. The stimulant for the cells in the DOR antagonist assay was 3×10E-8M DPDPE, a well-accepted DOR literature standard.

The subject of data set [5] is db/db mice. Nature of the data set: db/db mice, body weight. Type of data set: in vivo, mouse. The following applies: high dose (300 nmoles/kg), Days 2 and 3. The procedure: The 60 female db/db B6BKS (D) Leprdb/J (strain 000697) mice for this study were approximately 8 to 9 weeks old at arrival (Jackson Laboratory, Bar Harbor, Me.). The mice were randomized by weight and two treatment groups of 8 female mice each were administered the test articles, EU-A994, EU-A995, or EU-A1026, at dose levels of 100 or 300 nmoles/kg. One group of 8 female mice served as the vehicle control and received the vehicle, 0.2% BSA in saline, pH 7.4. One additional group of 8 female mice received the positive control article, liraglutide, at a dose level of 50 nmoles/kg. The test articles, vehicle, and positive control article were administered on Day 1, at approximately 0, 7, and 24 hours during the study via subcutaneous injection at a dose volume of 6 mL/kg.
(§1) Clinical observations were conducted at receipt, prior to randomization, and daily from Days 1 to 5. Body weights were measured and recorded at receipt, prior to randomization, and daily from Days 1 to 5. Food consumption was measured and recorded daily from Days 1 to 5. Blood samples for glucose analysis were collected pretest (Day −3) and at 0, 1, 2, 4, 8, 10, 24, 48, 72, and 96 hours following the first dose on Day 1. At study termination all animals were euthanized and the carcasses were discarded without further evaluation.

For data set [6], the system named is db/db mice. Nature of the data set: db/db mice, blood glucose after s.c. dosing. The following applies: for Mean Blood Glucose: db/db mice, s.c., 300 nmole/kg. Format: in vivo, mouse. The procedure:
The 60 female db/db B6BKS (D) Leprdb/J (strain 000697) mice for this study were approximately 8 to 9 weeks old at arrival (Jackson Laboratory, Bar Harbor, Me.). […] One group of 8 female mice served as the vehicle control and received the vehicle, 0.2% BSA in saline, pH 7.4. One additional group of 8 female mice received the positive control article, liraglutide, at a dose level of 50 nmoles/kg. The test articles, vehicle, and positive control article were administered on Day 1, at approximately 0, 7, and 24 hours during the study via subcutaneous injection at a dose volume of 6 mL/kg.
as §1

The conditions of data set [7]: in the body; by s.c. injection; cited from earlier work.

Each structure is given as a SMILES string. “Also recorded” adds a separate entry of the source. Non-standard residues stand in square brackets, D forms with d. Residues, ends and D or L forms follow the SMILES beside them. *: point of attachment. GlcA(β-D,1-O-dodecyl) = CCCCCCCCCCCCO[C@@H]1O[C@H](C(=O)*)[C@@H](O)[C@H](O)[C@H]1O; βGlcA(1-OMe) = CO[C@@H]1O[C@H](C(=O)*)[C@@H](O)[C@H](O)[C@H]1O; Dmt = Cc1cc(O)cc(C)c1C[C@H](N)C(=O)O; hArg = N=C(N)NCCCC[C@H](N)C(=O)O; Tic = O=C(O)[C@@H]1Cc2ccccc2CN1; Nle = CCCC[C@H](N)C(=O)O; Ac5c = NC1(C(=O)O)CCCC1; Aib = CC(C)(N)C(=O)O

T3 sequence (P32300 whole entry): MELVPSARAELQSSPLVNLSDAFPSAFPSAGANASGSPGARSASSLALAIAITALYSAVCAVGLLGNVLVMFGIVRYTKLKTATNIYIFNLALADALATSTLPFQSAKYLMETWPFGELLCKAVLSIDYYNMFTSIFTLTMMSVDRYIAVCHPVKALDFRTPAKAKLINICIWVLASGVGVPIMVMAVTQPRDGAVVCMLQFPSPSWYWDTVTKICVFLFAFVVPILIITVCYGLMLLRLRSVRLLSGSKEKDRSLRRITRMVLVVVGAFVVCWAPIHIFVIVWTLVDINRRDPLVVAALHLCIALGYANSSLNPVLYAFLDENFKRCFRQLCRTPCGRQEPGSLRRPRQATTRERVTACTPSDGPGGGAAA
T2 sequence (P35372 whole entry): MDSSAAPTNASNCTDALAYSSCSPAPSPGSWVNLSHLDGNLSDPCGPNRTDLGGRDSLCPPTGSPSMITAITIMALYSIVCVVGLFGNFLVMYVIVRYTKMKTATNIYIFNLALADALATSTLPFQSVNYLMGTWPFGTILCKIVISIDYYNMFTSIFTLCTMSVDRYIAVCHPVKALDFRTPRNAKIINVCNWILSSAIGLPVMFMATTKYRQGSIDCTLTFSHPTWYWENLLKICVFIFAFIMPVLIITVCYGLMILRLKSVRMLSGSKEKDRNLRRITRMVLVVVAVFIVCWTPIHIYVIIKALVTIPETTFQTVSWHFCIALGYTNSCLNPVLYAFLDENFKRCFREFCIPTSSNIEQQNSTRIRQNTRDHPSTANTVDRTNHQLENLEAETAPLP

Regarding `CCCCCCCCCCCCO[C@@H]1O[C@H](C(=O)NCCCC[C@H](NC(=O)[C@H](CCC(N)=O)NC(=O)[C@@H](NC(=O)[C@H](Cc2ccccc2)NC(=O)[C@H](CCCNC(=N)N)NC(=O)[C@H](C)NC(=O)[C@H](CCCCNC(=N)N)NC(=O)[C@H](CCC(N)=O)NC(=O)[C@H](Cc2c[nH]cn2)NC(=O)[C@H](CCCC)NC(=O)[C@H](CC(C)C)NC(=O)[C@H](CCC(N)=O)NC(=O)[C@@H](NC(=O)[C@H](CCC(=O)O)NC(=O)C(C)(C)NC(=O)[C@@H](NC(=O)C2(N)CCCC2)C(C)C)[C@@H](C)CC)[C@@H](C)CC)C(N)=O)[C@@H](O)[C@H](O)[C@H]1O` [EU-203] (H-[Ac5c]V[Aib]EIQL[Nle]HQ[hArg]ARFIQK(GlcA(β-D,1-O-dodecyl))-NH2; N-terminus assumed), the Emax in data set [1] was determined as 146%.
Turning to `CO[C@@H]1O[C@H](C(=O)NCCCC[C@H](NC(=O)[C@H](Cc2ccccc2)NC(=O)[C@@H]2Cc3ccccc3CN2C(=O)[C@@H](N)Cc2c(C)cc(O)cc2C)C(N)=O)[C@@H](O)[C@H](O)[C@H]1O` [EU-A178, 2′,6′-dimethyl-L-tyrosyl-L-1,2,3,4-tetrahydroisoquinoline-3-carbonyl-L-phenylalanyl-Nε-(1′-methyl β-D-glucuronyl)-L-lysyl-amide] (H-[Dmt][Tic]FK(βGlcA(1-OMe))-NH2), in data set [2], the “Paw Pressure Thresholds (PPT)” value is reported as “statistically significant increases in PPT”. For the same compound, the “Characterization (MOP)” value in data set [3] is on record as “full agonistic behavior; also recorded: Pure MOP Ag;”. The “Characterization (DOP)” value in data set [4] was “pure antagonist; also recorded: pure DOP antag”.
For `CCCCCCCCCCCCCCO[C@@H]1O[C@H](C(=O)NCCCC[C@H](NC(=O)[C@@H](NC(=O)[C@H](Cc2ccccc2)NC(=O)[C@H](CCC(=O)O)NC(=O)[C@@H]2CCCCNC(=O)CC[C@H](NC(=O)[C@H](CC(=O)O)NC(=O)[C@H](CC(C)C)NC(=O)[C@H](Cc3ccc(O)cc3)NC(=O)[C@H](CCCCN)NC(=O)[C@H](CO)NC(=O)[C@H](Cc3ccc(O)cc3)NC(=O)[C@H](CC(=O)O)NC(=O)[C@H](CO)NC(=O)[C@@H](NC(=O)[C@H](Cc3ccccc3)NC(=O)[C@@H](NC(=O)CNC(=O)[C@H](CCC(N)=O)NC(=O)C(C)(C)NC(=O)[C@@H](N)Cc3c[nH]cn3)[C@@H](C)O)[C@@H](C)O)C(=O)N[C@@H](CCC(N)=O)C(=O)N[C@@H](C)C(=O)N[C@@H](C)C(=O)N2)[C@@H](C)CC)C(=O)N[C@@H](Cc2c[nH]c3ccccc23)C(=O)N[C@@H](CC(C)C)C(=O)N[C@@H](CC(C)C)C(=O)N[C@@H](CCC(N)=O)C(=O)N[C@H](C(N)=O)[C@@H](C)O)[C@@H](O)[C@H](O)[C@H]1O` [EU-A994], the “body weight changes against vehicle” value in data set [5] is given as “Significant body weight changes”. Further, the “Mean Blood Glucose” value in data set [6] (0 hr) came out at 554 mg/dL; in data set [6] (10 hr), 242 mg/dL; in data set [6] (24 hr) it was 209 mg/dL; in data set [6] (48 hr), 385 mg/dL. The “Glucose levels vs vehicle” value in data set [6] (high dose (300 nmoles/kg), at 10 and 24 hours) is listed as “significantly different from vehicle”.
Consider `CC[C@H](C)[C@H](NC(=O)[C@H](CCC(=O)O)NC(=O)[C@H](CO)NC(=O)[C@@H](NC(=O)[C@@H](N)CO)C(C)C)C(=O)N[C@@H](CCC(N)=O)C(=O)N[C@@H](CC(C)C)C(=O)N[C@@H](CCSC)C(=O)N[C@@H](Cc1cnc[nH]1)C(=O)N[C@@H](CC(N)=O)C(=O)N[C@@H](CC(C)C)C(=O)NCC(=O)N[C@@H](CCCCN)C(=O)N[C@@H](Cc1cnc[nH]1)C(=O)N[C@@H](CC(C)C)C(=O)N[C@@H](CC(N)=O)C(=O)N[C@@H](CO)C(=O)N[C@@H](CCSC)C(=O)N[C@@H](CCC(=O)O)C(=O)N[C@@H](CCCN=C(N)N)C(=O)N[C@H](C(=O)N[C@@H](CCC(=O)O)C(=O)N[C@@H](Cc1c[nH]c2ccccc12)C(=O)N[C@@H](CC(C)C)C(=O)N[C@@H](CCCN=C(N)N)C(=O)N[C@@H](CCCCN)C(=O)N[C@@H](CCCCN)C(=O)N[C@@H](CC(C)C)C(=O)N[C@@H](CCC(N)=O)C(=O)N[C@@H](CC(=O)O)C(=O)N[C@H](C(=O)N[C@@H](Cc1cnc[nH]1)C(=O)N[C@@H](CC(N)=O)C(=O)N[C@@H](Cc1ccccc1)C(=O)O)C(C)C)C(C)C` [PTH], for which, in data set [7], the half-life – broadly, the time in which the quantity being followed falls by half – is 30 min.
